Measurements: US10329303B2, “Heterocyclic inhibitors of monocarboxylate transporter” (THE SCRIPPS RESEARCH INSTITUTE, priority 2015, dated 2019)

System: Raji (Burkitt's) lymphoma cells
Assay: MTT assay for 4-day viability of Raji (Burkitt's) lymphoma cells
Format: cell-based
Conditions: Homo sapiens, 96 h, Raji cells (highly express MCT1), read-out: approximate potency (EC50)
From the text: Specific Examples 1-52 of compounds of the invention, with estimated EC50 values determined using an MTT assay for 4-day viability of Raji (Burkitt's) lymphoma cells, a cell line known to highly express MCT1 and to be sensitive to small molecule MCT inhibitors,^4 are shown in Table 2. Assay protocols follow those described in the literature.^4 Other assays that are not described here but that are standard in the field, such as an assay for competitive inhibition of transport of radiolabeled lactic acid, an MCT substrate, may also be useful in establishing mechanism of action of these compounds.

Row | SMILES | EC50 [µM]
1 | CC(C)Cc1nn(C)c(=O)c2c(-c3ccc(F)c(CO)c3F)n(Cc3cccc4ccccc34)cc12 [Example 27, 7-(2,4-difluoro-3-(hydroxymethyl)phenyl)-4-isobutyl-2-methyl-6-(naphthalen-1-ylmethyl)-2,6-dihydro-1H-pyrrolo[3,4-d]pyridazin-1-one] | 0.08
2 | Cc1n[nH]c(C)c1Cc1sc2c(c1-c1cc(CO)c(F)cc1F)c(=O)n(C1CC1)c(=O)n2CC(C)C [Example 19, 3-cyclopropyl-5-(2,4-difluoro-5-(hydroxymethyl)phenyl)-6-((3,5-dimethyl-1H-pyrazol-4-yl)methyl)-1-isobutylthieno[2,3-d]pyrimidine-2,4(1H,3H)-dione] | 0.07
3 | Cc1n[nH]c(C)c1Cc1sc2c(c1-c1cccc(CO)c1F)c(=O)n(C1CC1)c(=O)n2CC(C)C [Example 20, 3-cyclopropyl-6-((3,5-dimethyl-1H-pyrazol-4-yl)methyl)-5-(2-fluoro-3-(hydroxymethyl)phenyl)-1-isobutylthieno[2,3-d]pyrimidine-2,4(1H,3H)-dione] | ≤ 0.02
4 | Cc1n[nH]c(C)c1Cc1sc2c(c1-c1cccc(C(C)O)c1)c(=O)n(C)c(=O)n2CC(C)C (centres unmarked) [Example 13, 6-((3,5-dimethyl-1H-pyrazol-4-yl)methyl)-5-(3-(1-hydroxyethyl)phenyl)-1-isobutyl-3-methylthieno[2,3-d]pyrimidine-2,4(1H,3H)-dione] | 0.05
5 | Cc1n[nH]c(C)c1Cc1sc2c(c1-c1cc(F)c(F)c(CO)c1)c(=O)n(C)c(=O)n2CC(C)C [Example 5, 5-(3,4-difluoro-5-(hydroxymethyl)phenyl)-6-((3,5-dimethyl-1H-pyrazol-4-yl)methyl)-1-isobutyl-3-methylthieno[2,3-d]pyrimidine-2,4(1H,3H)-dione] | 0.16
6 | CC(C)Cc1nn(C)c(=O)c2c(-c3cccc(CO)c3)n(Cc3cccc4ccccc34)cc12 [Example 31, 7-(3-(hydroxymethyl)phenyl)-4-isobutyl-2-methyl-6-(naphthalen-1-ylmethyl)-2,6-dihydro-1H-pyrrolo[3,4-d]pyridazin-1-one] | 0.1
7 | Cc1n[nH]c(C)c1Cc1sc2c(c1-c1cncc(CO)c1)c(=O)n(C)c(=O)n2CC(C)C [Example 12, 6-((3,5-dimethyl-1H-pyrazol-4-yl)methyl)-5-(5-(hydroxymethyl)pyridin-3-yl)-1-isobutyl-3-methylthieno[2,3-d]pyrimidine-2,4(1H,3H)-dione] | 0.075
8 | Cc1n[nH]c(C)c1Cc1sc2c(c1-c1cccc(CO)c1)c(=O)n(C1CC1)c(=O)n2CC(C)C [Example 24, 3-cyclopropyl-6-((3,5-dimethyl-1H-pyrazol-4-yl)methyl)-5-(3-(hydroxymethyl)phenyl)-1-isobutylthieno[2,3-d]pyrimidine-2,4(1H,3H)-dione] | 1
9 | Cc1n[nH]c(C)c1Cn1cc2c(CC(C)C)nn(C)c(=O)c2c1-c1cccc(CO)c1 [Example 43, 6-((3,5-dimethyl-1H-pyrazol-4-yl)methyl)-7-(3-(hydroxymethyl)phenyl)-4-isobutyl-2-methyl-2,6-dihydro-1H-pyrrolo[3,4-d]pyridazin-1-one] | 0.5
10 | CC(C)Cc1nn(C)c(=O)c2c(-c3cccc(CO)c3)n(CCOc3ccccc3Cl)cc12 [Example 48, 6-(2-(2-chlorophenoxy)ethyl)-7-(3-(hydroxymethyl)phenyl)-4-isobutyl-2-methyl-2,6-dihydro-1H-pyrrolo[3,4-d]pyridazin-1-one] | 1 to 10
11 | CC(C)Cc1nn(C)c(=O)c2c(-c3cccc(C(C)O)c3)n(Cc3cccc4ccccc34)cc12 (centres unmarked) [Example 36, 7-(3-(1-hydroxyethyl)phenyl)-4-isobutyl-2-methyl-6-(naphthalen-1-ylmethyl)-2,6-dihydro-1H-pyrrolo[3,4-d]pyridazin-1-one] | 0.1
12 | Cc1n[nH]c(C)c1Cc1sc2c(c1-c1ccnc(CO)c1)c(=O)n(C1CC1)c(=O)n2CC(C)C [Example 23, 3-cyclopropyl-6-((3,5-dimethyl-1H-pyrazol-4-yl)methyl)-5-(2-(hydroxymethyl)pyridin-4-yl)-1-isobutylthieno[2,3-d]pyrimidine-2,4(1H,3H)-dione] | ≤ 0.02
13 | Cc1n[nH]c(C)c1Cc1sc2c(c1-c1cc(CO)c(F)cc1F)c(=O)n(C)c(=O)n2CC(C)C [Example 6, 5-(2,4-difluoro-5-(hydroxymethyl)phenyl)-6-((3,5-dimethyl-1H-pyrazol-4-yl)methyl)-1-isobutyl-3-methylthieno[2,3-d]pyrimidine-2,4(1H,3H)-dione] | ≤ 0.02
14 | CC(C)Cc1nn(C)c(=O)c2c(-c3csc(CO)n3)n(Cc3cccc4ccccc34)cc12 [Example 26, 7-(2-(hydroxymethyl)thiazol-4-yl)-4-isobutyl-2-methyl-6-(naphthalen-1-ylmethyl)-2,6-dihydro-1H-pyrrolo[3,4-d]pyridazin-1-one] | 0.09
15 | Cc1n[nH]c(C)c1Cc1sc2c(c1-c1cc(CO)ccc1F)c(=O)n(C1CC1)c(=O)n2CC(C)C [Example 22, 3-cyclopropyl-6-((3,5-dimethyl-1H-pyrazol-4-yl)methyl)-5-(2-fluoro-5-(hydroxymethyl)phenyl)-1-isobutylthieno[2,3-d]pyrimidine-2,4(1H,3H)-dione] | ≤ 0.02
16 | CC(C)Cc1nn(C)c(=O)c2c(-c3cccc(CO)c3)n(Cc3cc(Cl)nc4ccccc34)cc12 [Example 46, 6-((2-chloroquinolin-4-yl)methyl)-7-(3-(hydroxymethyl)phenyl)-4-isobutyl-2-methyl-2,6-dihydro-1H-pyrrolo[3,4-d]pyridazin-1-one] | 1 to 10
17 | CC(C)Cc1nn(C)c(=O)c2c(-c3cccc(CO)c3)n(Cc3cnc(Cl)c4ccccc34)cc12 [Example 47, 6-((1-chloroisoquinolin-4-yl)methyl)-7-(3-(hydroxymethyl)phenyl)-4-isobutyl-2-methyl-2,6-dihydro-1H-pyrrolo[3,4-d]pyridazin-1-one] | 1 to 10
18 | CC(C)Cc1nn(C)c(=O)c2c(-c3csc(C(C)O)c3)n(Cc3cccc4ccccc34)cc12 (centres unmarked) [Example 33, 7-(5-(1-hydroxyethyl)thiophen-3-yl)-4-isobutyl-2-methyl-6-(naphthalen-1-ylmethyl)-2,6-dihydro-1H-pyrrolo[3,4-d]pyridazin-1-one] | 0.07
19 | CC(C)Cc1nn(C)c(=O)c2c(-c3ccc(C(O)C(F)(F)F)s3)n(Cc3cccc4ccccc34)cc12 (centres unmarked) [Example 39, 4-isobutyl-2-methyl-6-(naphthalen-1-ylmethyl)-7-(5-(2,2,2-trifluoro-1-hydroxyethyl)thiophen-2-yl)-2,6-dihydro-1H-pyrrolo[3,4-d]pyridazin-1-one] | 0.09
20 | Cc1n[nH]c(C)c1Cc1sc2c(c1-c1cccc(CO)c1)c(=O)n(C)c(=O)n2CC(C)C [Example 15, 6-((3,5-dimethyl-1H-pyrazol-4-yl)methyl)-5-(3-(hydroxymethyl)phenyl)-1-isobutyl-3-methylthieno[2,3-d]pyrimidine-2,4(1H,3H)-dione] | < 0.02
21 | Cc1n[nH]c(C)c1Cc1sc2c(c1-c1ccc(F)c(CO)c1)c(=O)n(C1CC1)c(=O)n2CC(C)C [Example 16, 3-cyclopropyl-6-((3,5-dimethyl-1H-pyrazol-4-yl)methyl)-5-(4-fluoro-3-(hydroxymethyl)phenyl)-1-isobutylthieno[2,3-d]pyrimidine-2,4(1H,3H)-dione] | 0.22
22 | Cc1n[nH]c(C)c1Cc1sc2c(c1-c1cccc(CO)c1F)c(=O)n(C)c(=O)n2CC(C)C [Example 1, 6-((3,5-dimethyl-1H-pyrazol-4-yl)methyl)-5-(2-fluoro-3-(hydroxymethyl)phenyl)-1-isobutyl-3-methylthieno[2,3-d]pyrimidine-2,4(1H,3H)-dione] | ≤ 0.02
23 | CC(C)Cc1nn(C)c(=O)c2c(-c3cc(C(C)O)ccc3F)n(Cc3cccc4ccccc34)cc12 (centres unmarked) [Example 35, 7-(2-fluoro-5-(1-hydroxyethyl)phenyl)-4-isobutyl-2-methyl-6-(naphthalen-1-ylmethyl)-2,6-dihydro-1H-pyrrolo[3,4-d]pyridazin-1-one] | 0.08
24 | Cc1n[nH]c(C)c1Cc1sc2c(c1-c1cc(F)cc(CO)c1)c(=O)n(C)c(=O)n2CC(C)C [Example 11, 6-((3,5-dimethyl-1H-pyrazol-4-yl)methyl)-5-(3-fluoro-5-(hydroxymethyl)phenyl)-1-isobutyl-3-methylthieno[2,3-d]pyrimidine-2,4(1H,3H)-dione] | 0.025
25 | CC(C)Cc1nn(C)c(=O)c2c(-c3cccc(C(C)O)n3)n(Cc3cccc4ccccc34)cc12 (centres unmarked) [Example 34, 7-(6-(1-hydroxyethyl)pyridin-2-yl)-4-isobutyl-2-methyl-6-(naphthalen-1-ylmethyl)-2,6-dihydro-1H-pyrrolo[3,4-d]pyridazin-1-one] | 1
26 | Cc1n[nH]c(C)c1Cc1sc2c(c1-c1cccc(C(O)C(F)(F)F)c1)c(=O)n(C)c(=O)n2CC(C)C (centres unmarked) [Example 14, 6-((3,5-dimethyl-1H-pyrazol-4-yl)methyl)-1-isobutyl-3-methyl-5-(3-(2,2,2-trifluoro-1-hydroxyethyl)phenyl)thieno[2,3-d]pyrimidine-2,4(1H,3H)-dione] | < 0.02
27 | CC(C)Cc1nn(C)c(=O)c2c(-c3cc(CO)ccc3Cl)n(Cc3cccc4ccccc34)cc12 [Example 30, 7-(2-chloro-5-(hydroxymethyl)phenyl)-4-isobutyl-2-methyl-6-(naphthalen-1-ylmethyl)-2,6-dihydro-1H-pyrrolo[3,4-d]pyridazin-1-one] | 0.6
28 | CC(C)Cc1nn(C)c(=O)c2c(-c3cccc(C(C)O)c3)n(Cc3ccc(-c4ccccc4)cc3)cc12 (centres unmarked) [Example 42, 6-([1,1′-biphenyl]-4-ylmethyl)-7-(3-(1-hydroxyethyl)phenyl)-4-isobutyl-2-methyl-2,6-dihydro-1H-pyrrolo[3,4-d]pyridazin-1-one] | 1 to 10
29 | CC(C)Cc1nn(C)c(=O)c2c(-c3cccc(CO)c3)n(Cc3cc(NCCCCCN)nc4ccccc34)cc12 [Example 49, 6-((2-((5-aminopentyl)amino)quinolin-4-yl)methyl)-7-(3-(hydroxymethyl)phenyl)-4-isobutyl-2-methyl-2,6-dihydro-1H-pyrrolo[3,4-d]pyridazin-1-one] | 1 to 10
